Consider 13 compounds from US9765038B2, “Heteroaryl compounds and uses thereof” (Celgene CAR LLC, priority 2010, dated 2017).

Test [1] has as its target T1, EGFR T790M/L858R (Homo sapiens (Human), UniProt P00533, L858R/T790M). Nature of the test: Omnia assay, EGFR (T790M/L858R) active enzyme. The format is biochemical. As to conditions: for Ratio WT/mutant: biochemical IC50, WT EGFR vs EGFR (T790M/L858R); for pIC50: [EGFR-T790M/L858R]=2.5 nM, [ATP]=20 uM, 30 min pre-incubation.
Method: (§7) Kinase reactions were started with the addition of 45 μL of the ATP/Tyr-Sox peptide substrate mix and monitored every 71 seconds for 60 minutes at λex360/λem485 in a Synergy^4 plate reader from BioTek (Winooski, Vt.).
The target of a further test is EGFR-WT (Homo sapiens (Human), UniProt P00533). The test is described as follows: Omnia assay, EGFR (WT) active enzyme. It counts as biochemical. The conditions noted are these: [EGFR-WT]=5 nM, [ATP]=15 uM, 30 min pre-incubation.
In test [2] the target is EGFR double mutation L858R/T790M (H1975 cells) (Homo sapiens (Human), UniProt P00533, L858R/T790M). The test is described as follows: EGFR signaling immunoblot (phospho-EGFR, phospho-S6) in H1975 cells. The format is cell-based. The conditions noted are these: for Ratio WT/mutant: signaling EC50, WT EGFR (A431) vs H1975. As for the experimental part: (§1) A431 human epidermoid carcinoma, H1975 human NSCLC and HCC827 human NSCLC adenocarcinoma cells were obtained from the American Type Culture Center (Manassas, Va.). A431 cells were grown in DMEM (Invitrogen, Carlsbad, Calif.) supplemented with 10% FBS (HyClone, South Logan, Utah) and 1% Penicillin-Streptomycin (P/S, Lonza, Walkersville, Md.).
(§2) All primary antibodies were obtained from Cell Signaling (Danvers, Mass.) and used at 1:1000. Secondary antibodies were used at 1:10,000. Goat anti-mouse IgG IRDye 800CW antibody was obtained from LiCor Biosciences (Lincoln, Nebr.) and goat anti-rabbit IgG Alexa Fluor 680 was obtained from Invitrogen.
(§3) Cells were grown in 12-well plates (Corning, Coring, N.Y.) to 90% confluence and then incubated in low-serum (0.1% FBS) media for 16-18 hr. […] A431 cells were then stimulated with 50 ng/ml EGF (Peprotech, Rocky Hill, N.J.) for 15 min. After treatment, cell monolayers were washed with cold PBS (Invitrogen) and immediately lysed by scrapping into 60 uL cold Cell Extraction Buffer (Invitrogen) supplemented with Complete Protease inhibitors (Roche, Indianapolis, Ind.) and PhosphoSTOP (Roche) phosphatase inhibitors.
(§4) Phospho-protein signals were quantitated using Odyssey Infrared Imaging (Li-Cor Biosciences).
(§5) Blots were normalized as indicated above. […] Normalized data was fitted using a sigmoidal curve analysis program (Graph Pad Prism version 5) with variable Hill slope to determine the EC50 values.
In general terms: Immunoblotting shows a protein as a band on a membrane.

The target in test [3] is EGFR delE746-A750 mutation (HCC827 cells) (Homo sapiens (Human), UniProt P00533, DEL746-750). The test is described as follows: EGFR signaling immunoblot in HCC827 cells. The format is cell-based. The conditions noted are these: for Ratio WT/mutant: signaling EC50, WT EGFR (A431) vs HCC827. As for the experimental part: as §1, §2, §3, §4, §5
In test [4] the target is T1, EGFR T790M/L858R. The conditions noted are these: for covalent modification of the protein: intact protein MS, I-1 within 30 minutes.
The next test has as its target pEGFR in H1975 cells (Homo sapiens (Human), UniProt P00533, L858R/T790M). The conditions noted are these: 500 nM for 1 hr, washout up to 24 hr, FIG. 3.
In test [5] the test system is H1975 cells (EGFR L858R/T790M). The test is described as follows: Cell proliferation (CellTiter Glo), H1975 cells. It counts as cell-based, human. The conditions noted are these: GI50, WT EGFR (A431) vs H1975. As for the experimental part: as §1
(§6) Growth inhibition (GI50) values were determined by Graph Pad Prism.
For orientation: Cellular ATP, detected with luciferase, serves as a proxy for viable cell number.

For the next test, the target named is WT EGFR (A431 cells) (Homo sapiens (Human), UniProt P00533). The test is described as follows: EGFR signaling immunoblot (phospho-EGFR, phospho-S6) in A431 cells. It counts as cell-based. As to conditions: FIG. 2. As for the experimental part:
as §1, §2, §3, §4
Blots were normalized as indicated above. […]

The test system of test [6] is HCC827 cells (EGFR delE746-A750). Nature of the test: Cell proliferation (CellTiter Glo), HCC827 cells. The format is cell-based, human. As to conditions: GI50, WT EGFR (A431) vs HCC827. As for the experimental part:
as §1, §6

Where [7] appears, read: 10-fold excess of compound, MALDI, FIG. 4.

pEC50, pIC50: −log10 of the molar value. Some results are limits rather than exact numbers.

Method for EGFR-WT: as §7

For `C=CC(=O)Nc1cccc(Nc2nc(Nc3ccc(OC)cc3OC)ncc2Br)c1` [Compound I-20, N-(3-(5-bromo-2-(2,4-dimethoxyphenylamino)pyrimidin-4-ylamino)phenyl)acrylamide], the “Ratio WT/mutant” value on EGFR T790M/L858R [1] is greater than 45.
The pIC50 is the negative decadic logarithm of the IC50, by convention in mol/L. Read a low pIC50 as a large IC50. At EGFR-WT, `C=CC(=O)Nc1cccc(Nc2nc(Nc3cccc(OC)c3OC)ncc2Br)c1` [Compound I-14, N-(3-(5-bromo-2-(2,3-dimethoxyphenylamino)pyrimidin-4-ylamino)phenyl)acrylamide] had a pIC50 of 6.00 to 6.52. On EGFR T790M/L858R [1], the pIC50 is 8.00 to 9.00 and the “Ratio WT/mutant” value is on record as greater than 50.
In the case of `C=CC(=O)Nc1cccc(Nc2nc(Nc3ccccc3OC)ncc2Cl)c1` [Compound I-18, N-(3-(5-chloro-2-(2-methoxyphenylamino)pyrimidin-4-ylamino)phenyl)acrylamide], the “Ratio WT/mutant” value at EGFR T790M/L858R [1] was greater than 30.
As to `C=CC(=O)Nc1cccc(Oc2nc(Nc3ccccc3OC)ncc2F)c1` [Compound I-19, N-(3-(5-fluoro-2-(2-methoxyphenylamino)pyrimidin-4-yloxy)phenyl)acrylamide], the “Ratio WT/mutant” value at EGFR T790M/L858R [1] was greater than 10.
As to `C=CC(=O)Nc1cccc(Nc2nc(Nc3ccc(OC)c(OC)c3OC)ncc2Br)c1` [Compound I-5, N-(3-(5-bromo-2-(2,3,4-trimethoxyphenylamino)pyrimidin-4-ylamino)phenyl)acrylamide], the “Ratio WT/mutant” value in [2] was greater than 50; at EGFR T790M/L858R [1], greater than 45.
In the case of `C=CC(=O)Nc1cccc(Nc2nc(Nc3ccc(OC)c(OC)c3OC)ncc2C(F)(F)F)c1` [Compound I-11, N-(3-(5-(trifluoromethyl)-2-(2,3,4-trimethoxyphenylamino)pyrimidin-4-ylamino)phenyl)acrylamide], the “Ratio WT/mutant” value in test [2] is greater than 50; in [3] it was greater than 5; at EGFR T790M/L858R [1], greater than 25.
Regarding `C=CC(=O)Nc1cccc(Nc2nc(Nc3ccccc3OC)ncc2C(F)(F)F)c1` [Compound I-1, N-(3-(2-(2-methoxyphenylamino)-5-(trifluoromethyl)pyrimidin-4-ylamino)phenyl)acrylamide], the mass shift on EGFR T790M/L858R [4] (setting [7]) came to 488 Da. Also, the “mass shift relative to compound mass” value at EGFR T790M/L858R [4] (setting [7]) is 113%. In addition, the “covalent modification of the protein” value on EGFR T790M/L858R [4] is on record as “completely modifies”. Also, the “Ratio WT/mutant” value (in test [2]; in test [3]; on EGFR T790M/L858R [1]) was greater than 50 in each case. Moreover, the “duration of action after washout (pEGFR)” value at pEGFR in H1975 cells is recorded as “prolonged duration of action”.
For `C=CC(=O)Nc1cccc(Oc2nc(Nc3ccc(OC)c(OC)c3OC)ncc2C(F)(F)F)c1` [Compound I-10, N-(3-(5-(trifluoromethyl)-2-(2,3,4-trimethoxyphenylamino)pyrimidin-4-yloxy)phenyl)acrylamide], the “Ratio WT/mutant” value (in test [2]; on EGFR T790M/L858R [1]) was greater than 50 throughout.
Turning to `C=CC(=O)Nc1cccc(Oc2nc(Nc3ccc(OC)c(OC)c3OC)ncc2Cl)c1` [Compound I-7, N-(3-(5-chloro-2-(2,3,4-trimethoxyphenylamino)pyrimidin-4-yloxy)phenyl)acrylamide], the “Ratio WT/mutant” value in test [5] is reported as greater than 10; in test [2], greater than 50; in [6] it was greater than 15; at EGFR T790M/L858R [1] it was greater than 25. Moreover, at WT EGFR (A431 cells), the WT-EGFR sparing result was “completely WT-EGFR sparing”. Besides, the “covalent modification of the protein” value on EGFR T790M/L858R [4] was “covalently modify the protein”. For the same compound, the “inhibition of pEGFR and downstream S6 ribosomal protein” value in test [2] (H1975 cells, FIG. 1 and FIG. 2) was “inhibiting pEGFR and its downstream target S6 Ribosomal protein”.
By pEC50 is commonly meant the EC50 on a negative log10 scale, so that one unit is a factor of ten. Higher therefore signals a low EC50. For the compound `C=CC(=O)Nc1cccc(Oc2nc(Nc3cccc(OC)c3OC)ncc2Cl)c1` [Compound I-17, N-(3-(5-chloro-2-(2,3-dimethoxyphenylamino)pyrimidin-4-yloxy)phenyl)acrylamide], in test [3] (HCC827 cells, signaling, 1 hr), the pEC50 is 6.00 to 6.30. Besides, the pIC50 is 6.00 to 6.52 at EGFR-WT and 7.00 to 8.00 against EGFR T790M/L858R [1]. Further, at EGFR T790M/L858R [1], the “Ratio WT/mutant” value is greater than 35.
`C=CC(=O)Nc1cccc(Oc2nc(Nc3cccc(OC)c3OC)ncc2Br)c1` [Compound I-6, N-(3-(5-bromo-2-(2,3-dimethoxyphenylamino)pyrimidin-4-yloxy)phenyl)acrylamide]: the “Ratio WT/mutant” value on EGFR T790M/L858R [1] is greater than 45.
Turning to `C=CC(=O)Nc1cccc(Nc2nc(Nc3ccc(OC)cc3OC)ncc2Cl)c1` [Compound I-21, N-(3-(5-chloro-2-(2,4-dimethoxyphenylamino)pyrimidin-4-ylamino)phenyl)acrylamide], the entries for the “Ratio WT/mutant” value (in test [2]; on EGFR T790M/L858R [1]) were greater than 5 and greater than 50, respectively.
`C=CC(=O)Nc1cccc(Oc2nc(Nc3ccccc3OC)ncc2C(F)(F)F)c1` [Compound I-2, N-(3-(2-(2-methoxyphenylamino)-5-(trifluoromethyl)pyrimidin-4-yloxy)phenyl)acrylamide]: the “covalent modification of the protein” value on EGFR T790M/L858R [4] was “covalently modify the protein”. In addition, the “duration of action after washout (pEGFR)” value at pEGFR in H1975 cells is on record as “prolonged duration of action”.
